Measurements: the NIST ThermoML archive (doi:10.1021/je300873x)

Assay: mn = molality of the nth substance listed, in mol/kg
Details: for surface tension liquid-gas: Pendant drop shape; for electrical conductivity: Liquid, Digital conductivity meter

CCCCCCCCCCCCCCCC[N+](C)(CCO)CCO.[Br-] [hexadecyl- di(2-hydroxyethyl)-methylazanium bromide] + O
Details	electrical conductivity [S/m]	surface tension liquid-gas [mN/m]
298.15 K, m1 = 0.00011	–	64.14
298.15 K, m1 = 0.00021	–	58.32
298.15 K, m1 = 0.00032	–	52.91
298.15 K, m1 = 0.00042	–	47.72
298.15 K, m1 = 0.00053	–	44.77
298.15 K, m1 = 0.00056	0.0055	–
298.15 K, m1 = 0.00058	0.0057	–
298.15 K, m1 = 0.0006	0.0059	–
298.15 K, m1 = 0.00063	0.0062	41.55
298.15 K, m1 = 0.00065	0.0064	–
298.15 K, m1 = 0.00068	0.0067	–
298.15 K, m1 = 0.00072	0.0069	–
298.15 K, m1 = 0.00074	–	38.75
298.15 K, m1 = 0.00075	0.0072	–
298.15 K, m1 = 0.00079	0.0073	38.7
298.15 K, m1 = 0.00084	0.0075	38.62
298.15 K, m1 = 0.00089	0.0077	38.55
298.15 K, m1 = 0.00094	0.0078	–
298.15 K, m1 = 0.00095	–	38.02
298.15 K, m1 = 0.001	0.0081	–
298.15 K, m1 = 0.00105	–	38.11
298.15 K, m1 = 0.00108	0.0083	–
298.15 K, m1 = 0.00116	0.0086	37.87
298.15 K, m1 = 0.00126	0.0089	37.86
298.15 K, m1 = 0.00137	0.0092	–
298.15 K, m1 = 0.00151	0.0094	–
303.15 K, m1 = 0.00032	0.0034	–
303.15 K, m1 = 0.00035	0.0038	–
303.15 K, m1 = 0.00039	0.0042	–
303.15 K, m1 = 0.00043	0.0046	–
303.15 K, m1 = 0.0005	0.0052	–
303.15 K, m1 = 0.00058	0.0061	–
303.15 K, m1 = 0.00063	0.0066	–
303.15 K, m1 = 0.00068	0.007	–
303.15 K, m1 = 0.00075	0.0075	–
303.15 K, m1 = 0.00084	0.0081	–
303.15 K, m1 = 0.00094	0.0086	–
303.15 K, m1 = 0.001	0.0088	–
303.15 K, m1 = 0.00107	0.0091	–
303.15 K, m1 = 0.00116	0.0094	–
303.15 K, m1 = 0.00125	0.0097	–
303.15 K, m1 = 0.00137	0.01	–
303.15 K, m1 = 0.0015	0.0105	–
308.15 K, m1 = 0.00031	0.0037	–
308.15 K, m1 = 0.00035	0.004	–
308.15 K, m1 = 0.00038	0.0044	–
308.15 K, m1 = 0.00043	0.0049	–
308.15 K, m1 = 0.00049	0.0057	–
308.15 K, m1 = 0.00058	0.0067	–
308.15 K, m1 = 0.00063	0.0072	–
308.15 K, m1 = 0.00068	0.0078	–
308.15 K, m1 = 0.00075	0.0084	–
308.15 K, m1 = 0.00083	0.009	–
308.15 K, m1 = 0.00094	0.0097	–
308.15 K, m1 = 0.001	0.01	–
308.15 K, m1 = 0.00107	0.0102	–
308.15 K, m1 = 0.00116	0.0106	–
308.15 K, m1 = 0.00125	0.0108	–
308.15 K, m1 = 0.00137	0.0112	–
308.15 K, m1 = 0.0015	0.0117	–
313.15 K, m1 = 0.00058	0.0073	–
313.15 K, m1 = 0.0006	0.0075	–
313.15 K, m1 = 0.00062	0.0078	–
313.15 K, m1 = 0.00065	0.0081	–
313.15 K, m1 = 0.00068	0.0084	–
313.15 K, m1 = 0.00071	0.0088	–
313.15 K, m1 = 0.00075	0.009	–
313.15 K, m1 = 0.00079	0.0097	–
313.15 K, m1 = 0.00083	0.0101	–
313.15 K, m1 = 0.00088	0.0105	–
313.15 K, m1 = 0.00094	0.0109	–
313.15 K, m1 = 0.001	0.0112	–
313.15 K, m1 = 0.00107	0.0116	–
313.15 K, m1 = 0.00115	0.012	–
313.15 K, m1 = 0.00125	0.0124	–
313.15 K, m1 = 0.00136	0.0128	–
313.15 K, m1 = 0.0015	0.0133	–
318.15 K, m1 = 0.00055	0.0075	–
318.15 K, m1 = 0.00058	0.0078	–
318.15 K, m1 = 0.0006	0.008	–
318.15 K, m1 = 0.00062	0.0084	–
318.15 K, m1 = 0.00065	0.0087	–
318.15 K, m1 = 0.00068	0.0091	–
318.15 K, m1 = 0.00071	0.0095	–
318.15 K, m1 = 0.00075	0.0099	–
318.15 K, m1 = 0.00079	0.0105	–
318.15 K, m1 = 0.00083	0.0111	–
318.15 K, m1 = 0.00088	0.0116	–
318.15 K, m1 = 0.00093	0.0122	–
318.15 K, m1 = 0.001	0.0127	–
318.15 K, m1 = 0.00107	0.0131	–
318.15 K, m1 = 0.00115	0.0135	–
318.15 K, m1 = 0.00125	0.0139	–
318.15 K, m1 = 0.00136	0.0145	–
318.15 K, m1 = 0.0015	0.0152	–
323.15 K, m1 = 0.00055	0.008	–
323.15 K, m1 = 0.00057	0.0083	–
323.15 K, m1 = 0.0006	0.0086	–
323.15 K, m1 = 0.00062	0.0089	–
323.15 K, m1 = 0.00065	0.0093	–
323.15 K, m1 = 0.00068	0.0097	–
323.15 K, m1 = 0.00071	0.0101	–
323.15 K, m1 = 0.00075	0.0106	–
323.15 K, m1 = 0.00079	0.0112	–
323.15 K, m1 = 0.00083	0.0117	–
323.15 K, m1 = 0.00088	0.0124	–
323.15 K, m1 = 0.00093	0.0131	–
323.15 K, m1 = 0.00099	0.0137	–
323.15 K, m1 = 0.00107	0.0143	–
323.15 K, m1 = 0.00115	0.0148	–
323.15 K, m1 = 0.00124	0.0154	–
323.15 K, m1 = 0.00136	0.0161	–
323.15 K, m1 = 0.00149	0.0169	–

O [water] + CCCCCCCCCCCCCCCC[N+](C)(C)CCO.[Br-]
Details	surface tension liquid-gas [mN/m]
298.15 K, m2 = 0	72.17

O [water] + CCCCCCCCCCCCCCCC[N+](C)(CCO)CCO.[Br-]
Details	surface tension liquid-gas [mN/m]
298.15 K, m2 = 0	72.17

O [water] + CCCCCCCCCCCCCC[N+](C)(C)CCO.[Br-]
Details	surface tension liquid-gas [mN/m]
298.15 K, m2 = 0	72.17

O [water] + CCCCCCCCCCCCCC[N+](C)(CCO)CCO.[Br-]
Details	surface tension liquid-gas [mN/m]
298.15 K, m2 = 0	72.17

O [water] + CCCCCCCCCCCC[N+](C)(C)CCO.[Br-]
Details	surface tension liquid-gas [mN/m]
298.15 K, m2 = 0	72.17

O [water] + CCCCCCCCCCCC[N+](C)(CCO)CCO.[Br-]
Details	surface tension liquid-gas [mN/m]
298.15 K, m2 = 0	72.17
